Assay results as given in patent EP3928779A1 (Chugai Seiyaku Kabushiki Kaisha, priority 2014, dated 2016).

Each compound was assayed on rat small-intestinal brush border membrane vesicles (assay: Inhibitory effect on 33PO4 uptake into rat small-intestinal brush border membrane vesicles (rapid filtration method)). Conditions: 33PO4 uptake into rat small-intestinal BBMVs; test compound 1 µM; reacted for 60 seconds.
Type: biochemical
Protocol: Brush border membrane vesicles (BBMVs) were prepared using the upper region of the small intestine of each Wistar female rat (4-5 weeks old). […] The ^33PO4 transport activity of the small-intestinal BBMVs was determined by the rapid filtration method. […] Then, ice-cold buffer C (110 mM NaCl, 1 mM KH2PO4, and 10 mM HEPES (pH 7.5)) was added to each reaction mixture, which was immediately suctionfiltered through a Millipore filter. The filter was washed with buffer C, and each sample was then dissolved in a liquid scintillator. The amount of ^33PO4 uptake into BBMVs was measured using a liquid scintillation counter. […]

First: C[C@]12CCCN1N(Cc1c(F)cc(CCCCCCCOC[C@H](O)[C@@H](O)CO)cc1F)C(=O)C(C(=O)Nc1ccc(C(F)(F)F)cc1-c1ccc(C(F)(F)F)nc1)=C2O [Example 125, (4aR)-1-[[2,6-Difluoro-4-[7-[(2S,3S)-2,3,4-trihydroxybutoxy]heptyl]phenyl]methyl]-4-hydroxy-4a-methyl-2-oxo-N-[4-(trifluoromethyl)-2-[6-(trifluoromethyl)pyridin-3-yl]phenyl]-6,7-dihydro-5H-pyrrolo[1,2-b]pyridazine-3-carboxamide]
Second: C[C@]12CCCN1N(Cc1c(F)cc(OCCCCCCOC[C@@H](O)CO)cc1F)C(=O)C(C(=O)Nc1ccc(C(F)(F)F)cc1-c1ccc(C(F)(F)F)nc1)=C2O [Example 154]
The “Rate of uptake inhibition (%) (1 µM)” value of the first is higher: 76% for the first, 73% for the second.

Compared with C#Cc1ccc(CN2C(=O)C(C(=O)Nc3ccc(C(F)(F)F)cc3-c3cc(C(F)(F)F)ncn3)=C(O)[C@@]3(C)CCCN23)c(F)c1F [Example 126], C[C@]12CCCN1N(Cc1ccc(OCCCCCO)c(F)c1F)C(=O)C(C(=O)Nc1ccc(C(F)(F)F)cc1-c1cc(C(F)(F)F)ncn1)=C2O [Example 162] is higher in “Rate of uptake inhibition (%) (1 µM)” value: 71% for the first, 73% for the second.

First: COc1cccc(-c2cc(C(F)(F)F)ccc2NC(=O)C2=C(O)[C@@]3(C)CCCN3N(Cc3ccc(C#CCOCCCO)c(F)c3F)C2=O)c1OC [Example 127]
Second: COc1cccc(-c2cc(C(F)(F)F)ccc2NC(=O)C2=C(O)[C@@]3(C)CCCN3N(Cc3ccc(C#CCOCCO)c(F)c3F)C2=O)c1OC [Example 137]
The “Rate of uptake inhibition (%) (1 µM)” value of the first is higher: 95% for the first, 92% for the second.

Compared with C[C@]12CCCN1N(Cc1ccc(C#CCOCCCCO)c(F)c1F)C(=O)C(C(=O)Nc1ccc(C(F)(F)F)cc1-c1ccc(C(F)(F)F)nc1)=C2O [Example 128], C[C@]12CCCN1N(Cc1ccc(CCCOCCCO)c(F)c1F)C(=O)C(C(=O)Nc1ccc(C(F)(F)F)cc1-c1ccc(C(F)(F)F)nc1)=C2O [Example 141] is higher in “Rate of uptake inhibition (%) (1 µM)” value: 72% for the first, 83% for the second.

Compared with C[C@]12CCCN1N(Cc1c(F)cc(C#CC3(O)CCCC3)cc1F)C(=O)C(C(=O)Nc1ccc(C(F)(F)F)cc1-c1ccc(C(F)(F)F)nc1)=C2O [Example 130], C[C@]12CCCN1N(Cc1c(F)cc(C#CCN3CCOCC3)cc1F)C(=O)C(C(=O)Nc1ccc(C(F)(F)F)cc1-c1ccc(C(F)(F)F)nc1)=C2O [Example 132] is lower in “Rate of uptake inhibition (%) (1 µM)” value: 72% for the first, 71% for the second.

Going from C[C@]12CCCN1N(Cc1ccc(C#CCN3CCCC3=O)c(F)c1F)C(=O)C(C(=O)Nc1ccc(Br)c(F)c1)=C2O [Example 131] to C[C@]12CCCN1N(Cc1ccc(Br)cc1F)C(=O)C(C(=O)Nc1cc(F)c(Br)c(F)c1)=C2O [Example 166, (4aR)-N-(4-Bromo-3,5-difluorophenyl)-1-[(4-bromo-2-fluorophenyl)methyl]-4-hydroxy-4a-methyl-2-oxo-6,7-dihydro-5H-pyrrolo[1,2-b]pyridazine-3-carboxamide], the “Rate of uptake inhibition (%) (1 µM)” value falls from 87% to 73%.

Compared with COc1cccc(-c2cc(C(F)(F)F)ccc2NC(=O)C2=C(O)[C@@]3(C)CCCN3N(Cc3ccc(C#CCCCCO)c(F)c3F)C2=O)c1OC [Example 135], COc1cccc(-c2cc(C(F)(F)F)ccc2NC(=O)C2=C(O)[C@@]3(C)CCCN3N(Cc3ccc(C#CCCCO)c(F)c3F)C2=O)c1OC [Example 138] is higher in “Rate of uptake inhibition (%) (1 µM)” value: 90% for the first, 93% for the second.

Compared with COc1cccc(-c2cc(C(F)(F)F)ccc2NC(=O)C2=C(O)[C@@]3(C)CCCN3N(Cc3ccc(C#CCOCCOCCOCCO)c(F)c3F)C2=O)c1OC [Example 136], COc1cccc(-c2cc(C(F)(F)F)ccc2NC(=O)C2=C(O)[C@@]3(C)CCCN3N(Cc3ccc(C#CCOCCOCCO)c(F)c3F)C2=O)c1OC [Example 139] is higher in “Rate of uptake inhibition (%) (1 µM)” value: 80% for the first, 88% for the second.

Going from COc1cccc(-c2cc(C(F)(F)F)ccc2NC(=O)C2=C(O)[C@@]3(C)CCCN3N(Cc3ccc(CCCOCCOCCOCCO)c(F)c3F)C2=O)c1OC [Example 142] to COc1cccc(-c2cc(C(F)(F)F)ccc2NC(=O)C2=C(O)[C@@]3(C)CCCN3N(Cc3ccc(OC[C@H]4CCCO4)c(F)c3F)C2=O)c1OC [Example 159], the “Rate of uptake inhibition (%) (1 µM)” value rises from 76% to 89%.

First: C[C@]12CCCN1N(Cc1c(F)cc(C#CCCCCOC[C@H](O)CO)cc1F)C(=O)C(C(=O)Nc1ccc(C(F)(F)F)cc1-c1ccc(C(F)(F)F)nc1)=C2O.[Na+] [Example 143]
Second: C[C@]12CCCN1N(Cc1c(F)cc(C#CCCOC[C@H](O)CO)cc1F)C(=O)C(C(=O)Nc1ccc(C(F)(F)F)cc1-c1ccc(C(F)(F)F)nc1)=C2O [Example 145]
The “Rate of uptake inhibition (%) (1 µM)” value of the first is lower: 71% for the first, 78% for the second.

First: C[C@]12CCCN1N(Cc1c(Cl)cc(OCCN3CCOCC3)cc1Cl)C(=O)C(C(=O)Nc1cnc(C(F)(F)F)nc1-c1ccc(C(F)(F)F)nc1)=C2O.Cl [Example 146, (4aR)-1-[[2,6-Dichloro-4-(2-morpholin-4-ylethoxy)phenyl]methyl]-4-hydroxy-4a-methyl-2-oxo-N-[2-(trifluoromethyl)-4-[6-(trifluoromethyl)pyridin-3-yl]pyrimidin-5-yl]-6,7-dihyvdro-5H-pyrrolo[1,2-b]pyridazine-3-carboxamide hydrochloride]
Second: C[C@]12CCCN1N(Cc1c(Cl)cc(OCCN3CCOCC3)cc1Cl)C(=O)C(C(=O)Nc1ccc(C(F)(F)F)nc1-c1ccc(C(F)(F)F)nc1)=C2O.Cl [Example 148, (4aR)-1-[[2,6-Dichloro-4-(2-morpholin-4-ylethoxy)phenyl]methyl]-4-hydroxy-4a-methyl-2-oxo-N-[6-(trifluoromethyl)-2-16-(trifluoromethyl)pyridin-3-yl]pyridin-1-yl]-6,7-dihydro-5H-pyrrolo[1,2-bipyridazine-3-carboxamide hydrochloride]
The “Rate of uptake inhibition (%) (1 µM)” value of the first is lower: 71% for the first, 75% for the second.

First: C[C@]12CCCN1N(Cc1ccc(OCCN3CCOCC3)c(Cl)c1)C(=O)C(C(=O)Nc1ccc(C(F)(F)F)cc1-c1ccc(C(F)(F)F)nc1)=C2O [Example 149, (4aR)-1-[[3-Chloro-4-(2-morpholin-4-ylethoxy)phepyl]methyl]-4-hydroxy-4a-methyl-2-oxo-N-[4-(trifluoromethyl)-2-[6-(trifluoromethyl)pyridin-3-yl]phenyl]-6,7-dihydro-5H-pyrrolo[1,2-b]pyridazine-3-carboxamide]
Second: C[C@]12CCCN1N(Cc1ccc(SCCN3CCOCC3)c(F)c1F)C(=O)C(C(=O)Nc1ccc(C(F)(F)F)cc1-c1ccc(C(F)(F)F)nc1)=C2O.Cl [Example 163, (4aR)-1-[[2,3-Difluoro-4-(2-morpholin-4-ylethylsulfanyl)phenyl]methyl]-4-hydroxy-4a-methyl-2-oxo-N-[4-(trifluoromethyl)-2-[6-(trifluoromethyl)pyridin-3-yl]phenyl]-6,7-dihydro-5H-pyrrolo[1,2-b]pyridazine-3-carboxamide hydrochloride]
The “Rate of uptake inhibition (%) (1 µM)” value of the first is higher: 80% for the first, 79% for the second.

Going from COC(=O)COc1ccc(CN2C(=O)C(C(=O)Nc3ccc(C(F)(F)F)cc3-c3ccc(C(F)(F)F)nc3)=C(O)[C@@]3(C)CCCN23)c(F)c1F [Example 150, Methyl 2-[4-[[(4aR)-4-Hydroxy-4a-methyl-2-oxo-3-[[4-(trifluoromethyl)-2-[6-(trifluoromethyl)pyridin-3-yl]phenyl]carbamoy]-6,7-dihydro-5H-pyrrolor[1,2-b]pyridazin-1-yl]methyl]-2,3-difluorophenoxy] acetate] to C[C@]12CCCN1N(Cc1ccc(OC[C@H]3CCCO3)c(F)c1F)C(=O)C(C(=O)Nc1ccc(C(F)(F)F)cc1-c1ccc(C(F)(F)F)nc1)=C2O [Example 160], the “Rate of uptake inhibition (%) (1 µM)” value falls from 87% to 77%.

Going from COc1cccc(-c2cc(C(F)(F)F)ccc2NC(=O)C2=C(O)[C@@]3(C)CCCN3N(Cc3ccc(OCc4ccncc4)c(F)c3F)C2=O)c1OC [Example 151] to COc1cccc(-c2cc(C(F)(F)F)ccc2NC(=O)C2=C(O)[C@@]3(C)CCCN3N(Cc3ccc(OC4CCOCC4)c(F)c3F)C2=O)c1OC [Example 158], the “Rate of uptake inhibition (%) (1 µM)” value falls from 92% to 84%.

Going from C[C@]12CCCN1N(Cc1c(F)cc(OCCCCCOC[C@@H](O)CO)cc1F)C(=O)C(C(=O)Nc1ccc(C(F)(F)F)cc1-c1ccc(C(F)(F)F)nc1)=C2O [Example 153] to C[C@]12CCCN1N(Cc1c(F)cc(OCCCCCCOC[C@H](O)CO)cc1F)C(=O)C(C(=O)Nc1ccc(C(F)(F)F)cc1-c1ccc(C(F)(F)F)nc1)=C2O [Example 155], the “Rate of uptake inhibition (%) (1 µM)” value rises from 73% to 77%.

Compared with COC(=O)c1cc(F)c(CN2C(=O)C(C(=O)Nc3ccc(C(F)(F)F)cc3-c3ccc(C(F)(F)F)nc3)=C(O)[C@@]3(C)CCCN23)c(F)c1 [Example 165, Methyl 4-[[(4aR)-4-Hydroxy-4a-methyl-2-oxo-3-[[4-(trifluoromethyl)-2-[6-(trifluoromethyl)pyridin-3-yl]phenyl]carbamoyl]-6,7-dihydro-5H-pyrrolo[1,2-b]pyridazin-1 - yl]methyl]-3,5-difluorobenzoate], C[C@]12CCCN1N(Cc1ccc(F)c(F)c1)C(=O)C(C(=O)Nc1ccc(C(F)(F)F)cc1-c1ccc(C(F)(F)F)nc1)=C2O [Example 170] is lower in “Rate of uptake inhibition (%) (1 µM)” value: 75% for the first, 73% for the second.

C[C@]12CCCN1N(Cc1cccc(OC(F)F)c1)C(=O)C(C(=O)Nc1ccc(C(F)(F)F)cc1-c1ccc(C(F)(F)F)nc1)=C2O [Example 167] and C[C@]12CCCN1N(Cc1cccc(Cl)c1)C(=O)C(C(=O)Nc1ccc(C(F)(F)F)cc1-c1ccc(C(F)(F)F)nc1)=C2O [Example 169] are the same in “Rate of uptake inhibition (%) (1 µM)” value: 73% for the first, 73% for the second.

Going from C[C@]12CCCN1N(Cc1ccccc1Cl)C(=O)C(C(=O)Nc1ccc(C(F)(F)F)cc1-c1ccc(C(F)(F)F)nc1)=C2O [Example 168] to C[C@]12CCCN1N(Cc1cc(F)cc(F)c1)C(=O)C(C(=O)Nc1ccc(C(F)(F)F)cc1-c1ccc(C(F)(F)F)nc1)=C2O [Example 171], the “Rate of uptake inhibition (%) (1 µM)” value rises from 72% to 78%.
